Where a name gives a salt, the structure may show the parent alone.
Tests used:
Experiment in all cases: Method 1: intracellular Ca2+ release (FLIPR, Calcium 5) in recombinant CHO-K1 cells
Assay type in all cases: cell-based
[1] = target: T1, human S1PR4 receptor (Homo sapiens, UniProt O95977); conditions: (1): determined with method 1; read-out: S1P4 EC50
T1 construct: host or cells: CHO-K1
T1 sequence (O95977 1-384): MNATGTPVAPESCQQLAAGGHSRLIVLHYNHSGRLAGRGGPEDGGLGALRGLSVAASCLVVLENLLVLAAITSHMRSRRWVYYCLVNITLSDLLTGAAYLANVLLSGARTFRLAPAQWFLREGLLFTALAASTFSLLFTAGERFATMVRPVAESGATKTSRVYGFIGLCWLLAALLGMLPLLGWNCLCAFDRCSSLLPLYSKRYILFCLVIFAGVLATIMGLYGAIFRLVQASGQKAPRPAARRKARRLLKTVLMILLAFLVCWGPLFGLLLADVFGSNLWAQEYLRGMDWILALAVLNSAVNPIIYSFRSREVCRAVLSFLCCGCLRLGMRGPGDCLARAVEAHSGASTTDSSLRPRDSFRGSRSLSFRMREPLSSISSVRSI
Procedure, shortened: (§1)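 Potency here reflects Ca2+ release in recombinant CHO-K1 cells carrying Gq/i5, measured by Calcium 5 fluorescence on FLIPR at RT in pH 7.4 Hepes-buffered HBSS with probenecid. EC50 values were fitted after scaling to phospho-fingolimod.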

[2] = target: T2, human S1PR1 receptor (Homo sapiens, UniProt P21453); conditions: (1): determined with method 1; read-out: S1P1 EC50
T2 construct: host or cells: CHO-K1
Procedure, shortened: as §1

[3] = target: T3, human S1PR3 receptor (Homo sapiens, UniProt Q99500); conditions: (1): determined with method 1; read-out: S1P3 EC50
T3 construct: host or cells: CHO-K1
Procedure, shortened: as §1

[4] = target: T4, human S1PR5 receptor (Homo sapiens, UniProt Q9H228); conditions: agonist potency, determined with method 1 (symbols A-D); read-out: S1P5 EC50 range
T4 construct: host or cells: CHO-K1
Procedure, shortened: as §1

T4 sequence (Q9H228 whole entry): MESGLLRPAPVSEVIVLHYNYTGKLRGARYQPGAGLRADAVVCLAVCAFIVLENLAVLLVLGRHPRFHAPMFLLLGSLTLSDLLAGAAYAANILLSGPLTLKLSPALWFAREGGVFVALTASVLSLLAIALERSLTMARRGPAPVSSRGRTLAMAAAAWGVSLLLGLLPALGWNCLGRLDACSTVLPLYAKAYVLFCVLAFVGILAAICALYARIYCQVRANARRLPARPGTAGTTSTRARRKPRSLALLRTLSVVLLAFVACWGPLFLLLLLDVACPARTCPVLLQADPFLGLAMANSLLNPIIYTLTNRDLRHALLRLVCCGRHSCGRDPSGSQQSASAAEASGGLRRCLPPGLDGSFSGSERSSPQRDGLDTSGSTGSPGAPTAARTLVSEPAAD
T2 sequence (P21453 whole entry): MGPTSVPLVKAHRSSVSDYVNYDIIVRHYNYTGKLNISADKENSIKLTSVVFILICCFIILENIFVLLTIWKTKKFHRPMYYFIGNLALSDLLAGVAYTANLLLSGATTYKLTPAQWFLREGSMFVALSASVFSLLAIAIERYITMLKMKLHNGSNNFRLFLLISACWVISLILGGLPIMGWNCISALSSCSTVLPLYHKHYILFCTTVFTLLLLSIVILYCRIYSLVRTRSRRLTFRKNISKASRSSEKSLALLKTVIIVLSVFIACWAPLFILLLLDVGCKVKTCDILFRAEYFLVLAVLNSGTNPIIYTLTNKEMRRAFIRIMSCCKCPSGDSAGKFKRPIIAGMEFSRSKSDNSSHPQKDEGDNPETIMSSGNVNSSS
T3 sequence (Q99500 whole entry): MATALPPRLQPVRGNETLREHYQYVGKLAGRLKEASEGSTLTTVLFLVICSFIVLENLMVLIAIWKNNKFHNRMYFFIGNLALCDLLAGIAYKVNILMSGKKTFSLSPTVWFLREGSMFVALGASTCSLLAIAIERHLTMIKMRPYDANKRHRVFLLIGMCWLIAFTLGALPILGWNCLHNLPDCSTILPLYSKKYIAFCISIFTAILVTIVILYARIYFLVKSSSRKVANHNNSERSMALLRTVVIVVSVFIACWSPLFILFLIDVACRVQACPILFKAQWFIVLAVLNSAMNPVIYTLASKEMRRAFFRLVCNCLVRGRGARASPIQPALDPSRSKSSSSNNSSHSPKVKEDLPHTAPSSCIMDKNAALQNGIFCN

Compound	EC50 [1] [µM]	EC50 [2] [µM]	EC50 [3] [µM]	EC50 [4] [µM]
O=C(O)CCCN1CCc2nc(Cc3ccccc3)ncc2C1 [Compound 50, 4-(2-benzyl-7,8-dihydropyrido[4,3-d]pyrimidin-6(5H)-yl)butanoic acid]	> 1	> 1	> 1	1 to 10
O=C(O)CCN1CCc2nc(-c3ccc(OCc4ccc(Cl)cc4)cc3)ncc2C1 [Compound 74, 3-(2-(4-((4-chlorobenzyl)oxy)phenyl)-7,8-dihydropyrido[4,3-d]pyrimidin-6(5H)-yl)propanoic acid]	> 1	> 1	> 1	< 0.01
Cc1cc(-c2ccc3c(n2)CCN(CCC(=O)O)C3)ccc1OCc1ccc(C(F)(F)F)cc1 [Compound 167, 3-(2-(3-methyl-4-((4-(trifluoromethyl)benzyl)oxy)phenyl)-7,8-dihydro-1,6-naphthyridin-6(5H)-yl)propanoic acid]	> 1	> 1	> 1	< 0.01
CC(CC(=O)O)CN1CCc2nc(-c3ccc(OCc4ccccc4Cl)cc3F)ncc2C1 (stereo not drawn) [Compound 284, 4-[2-[4-[(2-chlorophenyl)methoxy]-2-fluoro-phenyl]-7,8-dihydro-5H-pyrido[4,3-d]pyrimidin-6-yl]-3-methyl-butanoic acid 2,2,2-trifluoroacetic acid salt]	> 1	> 1	> 1	0.01 to 0.1
Cc1cc(-c2ccc3c(n2)CCN(CCCC(=O)O)C3)ccc1OCc1ccccc1 [Compound 114, 4-(2-(4-(benzyloxy)-3-methylphenyl)-7,8-dihydro-1,6-naphthyridin-6(5H)-yl)butanoic acid]	> 1	> 1	> 1	< 0.01
CC(CCN1CCc2nc(-c3ccc(OCc4cccc(Cl)c4)cc3)c(F)cc2C1)C(=O)O (stereo not drawn) [Compound 182, 4-(2-(4-((3-chlorobenzyl)oxy)phenyl)-3-fluoro-7,8-dihydro-1,6-naphthyridin-6(5H)-yl)-2-methylbutanoic acid]	> 1	> 1	> 1	< 0.01
Cc1ccc(C(F)(F)F)c(COc2ccc(-c3ncc4c(n3)CCN(CC(C)CC(=O)O)C4)cc2)c1 (stereo not drawn) [Compound 275, 3-methyl-4-[2-[4-[[5-methyl-2-(trifluoromethyl)phenyl]methoxy]phenyl]-7,8-dihydro-5H-pyrido[4,3-d]pyrimidin-6-yl]butanoic acid 2,2,2-trifluoroacetic acid salt]	> 1	> 1	> 1	0.01 to 0.1
CC(CN1CCc2nc(-c3ccc(OCc4ccc(Cl)cc4)cc3)ncc2C1)C(=O)O (stereo not drawn) [Compound 12, 3-(2-(4-((4-chlorobenzyl)oxy)phenyl)-7,8-dihydropyrido[4,3-d]pyrimidin-6(5H)-yl)-2-methylpropanoic acid]	> 1	> 1	> 1	< 0.01
CC(CC(=O)O)CN1CCc2nc(-c3ccc(OCc4ccc(Cl)cc4)cc3)ncc2C1 (racemic) [Compound 23, 4-(2-(4-((4-chlorobenzyl)oxy)phenyl)-7,8-dihydropyrido[4,3-d]pyrimidin-6(5H)-yl)-3-methylbutanoic acid]	> 1	> 1	> 1	< 0.01
O=C(O)C1CC(N2CCc3nc(C#Cc4ccc(Cl)cc4)ccc3C2)C1 (stereo not drawn) [Compound 120, 3-(2-((4-chlorophenyl)ethynyl)-7,8-dihydro-1,6-naphthyridin-6(5H)-yl)cyclobutanecarboxylic acid]	> 1	> 1	> 1	1 to 10
O=C(O)CCN1CCc2nc(-c3ccc(OCc4ccccc4)cc3)cnc2C1 [Compound 177, 3-(2-(4-(benzyloxy)phenyl)-7,8-dihydropyrido[3,4-b]pyrazin-6(5H)-yl)propanoic acid]	> 1	> 1	> 1	< 0.01

Other lines, results leading:

EC50 [1] [µM]	EC50 [2] [µM]	EC50 [3] [µM]	EC50 [4] [µM]	Compound
> 1	> 1	> 1	1 to 10	O=C(O)CCCN1CCc2nc(Cc3c(F)cccc3F)ncc2C1 [Compound 51, 4-(2-(2,6-difluorobenzyl)-7,8-dihydropyrido[4,3-d]pyrimidin-6(5H)-yl)butanoic acid]
> 1	> 1	> 1	< 0.01	CC(CCC(=O)O)N1CCc2nc(-c3ccc(OCc4ccccc4)cc3)ncc2C1 (stereo not drawn) [Compound 64, 4-(2-(4-(benzyloxy)phenyl)-7,8-dihydropyrido[4,3-d]pyrimidin-6(5H)-yl)pentanoic acid]
> 1	> 1	> 1	0.01 to 0.1	CSc1ccc(COc2ccc(-c3ncc4c(n3)CCN(CC(C)CC(=O)O)C4)cc2)cc1 (stereo not drawn) [Compound 257, 3-methyl-4-[2-[4-[(4-methylsulfanylphenyl)methoxy]phenyl]-7,8-dihydro-5H-pyrido[4,3-d]pyrimidin-6-yl]butanoic acid 2,2,2-trifluoroacetic acid salt]
> 1	> 1	> 1	1 to 10	Cc1ccccc1C#Cc1ncc2c(n1)CCN(C1CC(C(=O)O)C1)C2 (stereo not drawn) [Compound 55, 3-(2-(o-tolylethynyl)-7,8-dihydropyrido[4,3-d]pyrimidin-6(5H)-yl)cyclobutanecarboxylic acid]
> 1	> 1	> 1	0.01 to 0.1	CC(CC(=O)O)CN1CCc2nc(-c3ccc(C(F)(F)Cc4ccc(Cl)cc4F)cc3)ncc2C1 (stereo not drawn) [Compound 277]
> 1	> 1	> 1	< 0.01	CC(CC(=O)O)CN1CCc2nc(-c3ccc(OCc4c(Cl)cccc4Cl)cc3)ncc2C1 (stereo not drawn) [Compound 243, 4-[2-[4-[(2,6-dichlorophenyl)methoxy]phenyl]-7,8-dihydro-5H-pyrido[4,3-d]pyrimidin-6-yl]-3-methyl-butanoic acid 2,2,2-trifluoroacetic acid salt]
> 1	> 1	> 1	< 0.01	O=C(O)CCN1CCc2nc(-c3ccc(OCc4c(Cl)cccc4Cl)cc3)c(F)cc2C1 [Compound 192, 3-(2-(4-((2,6-dichlorobenzyl)oxy)phenyl)-3-fluoro-7,8-dihydro-1,6-naphthyridin-6(5H)-yl)propanoic acid]
> 1	> 1	> 1	< 0.01	O=C(O)CCN1CCc2nc(-c3ccc(OCc4ccccc4)cc3)c(F)cc2C1 [Compound 186, 3-(2-(4-(benzyloxy)phenyl)-3-fluoro-7,8-dihydro-1,6-naphthyridin-6(5H)-yl)propanoic acid]
< 1	> 1	> 1	< 0.01	CC(CC(=O)O)CN1CCc2nc(-c3ccc(OCc4cccc(F)c4)cc3)ncc2C1 (stereo not drawn) [Compound 227, 4-(2-(4-((3-fluorobenzyl)oxy)phenyl)-7,8-dihydropyrido[4,3-d]pyrimidin-6(5H)-yl)-3-methylbutanoic acid]
< 1	< 1	< 1	0.1 to 1	O=C(O)CN1CCc2nc(-c3ccc(OCc4c(Cl)cccc4Cl)cc3)ncc2C1 [Compound 34, 2-(2-(4-((2,6-dichlorobenzyl)oxy)phenyl)-7,8-dihydropyrido[4,3-d]pyrimidin-6(5H)-yl)acetic acid]

Source: patent US10556907B2 (AbbVie Inc., priority 2015, dated 2020)
